# ChEMBL document CHEMBL3045573, “Design, synthesis, and quantitative structure-activity relationship study of herbicidal analogues of pyrazolo[5,1-d][1,2,3,5]tetrazin-4(3H)ones” (2007)
# What was measured:
# Format in all cases: functional
# Conditions in all cases: read-out: GI
# Echinochloa crus-galli [1] = test: Herbicidal activity against Echinochloa crus-galli (barnyard grass) assessed as inhibition of seedling growth at 10 ug/mL for 65 hr at 28 +/- 1 degC by cup test
# [2] = system: Brassica rapa subsp. oleifera; test: Herbicidal activity against Brassica rapa subsp. oleifera assessed as inhibition of root growth of rape seed at 10 ug/mL for 65 hr at 28 +/- 1 degC by root test
# Echinochloa crus-galli [3] = test: Herbicidal activity against Echinochloa crus-galli (barnyard grass) assessed as inhibition of seedling growth at 100 ug/mL for 65 hr at 28 +/- 1 degC by cup test
# [4] = system: Brassica rapa subsp. oleifera; test: Herbicidal activity against Brassica rapa subsp. oleifera assessed as inhibition of root growth of rape seed at 100 ug/mL for 65 hr at 28 +/- 1 degC by root test
SMILES,inhibition of growth at 10 µg/mL (Echinochloa crus-galli [1]) [%],inhibition of growth at 10 µg/mL [2] [%],inhibition of growth at 100 µg/mL (Echinochloa crus-galli [3]) [%],inhibition of growth at 100 µg/mL [4] [%]
CCOC(=O)c1c(C)nn2c(=O)n(-c3ccc(C(F)(F)F)cc3)nnc12,0,82,10,90
CCOC(=O)c1c(C(F)(F)F)nn2c(=O)n(-c3cccc(C(F)(F)F)c3)nnc12,0,0,1,14
CCOC(=O)c1c(C)nn2c(=O)n(-c3c(Cl)cc(C(F)(F)F)cc3Cl)nnc12,0,4,22,25
CCCOc1cc(-n2nnc3c(C(=O)OCC)c(C(F)(F)F)nn3c2=O)c(F)cc1Cl,0,0,20,5
CCOC(=O)c1c(SC)nn2c(=O)n(-c3c(Cl)cc(C(F)(F)F)cc3Cl)nnc12,3,3,28,9
C=CCOc1cc(-n2nnc3c(C(=O)OCC)c(C(F)(F)F)nn3c2=O)c(F)cc1Cl,0,0,16,2
CCOC(=O)c1c(SC)nn2c(=O)n(-c3cc(C(F)(F)F)ccc3Cl)nnc12,2,0,11,13
CCOC(=O)c1c(SC)nn2c(=O)n(-c3cccc(C(F)(F)F)c3)nnc12,0,34,0,37
CCOC(=O)c1c(C)nn2c(=O)n(-c3ccc(Cl)c(C(F)(F)F)c3)nnc12,0,89,4,89
CC#COc1cc(-n2nnc3c(C(=O)OCC)c(C(F)(F)F)nn3c2=O)c(F)cc1Cl,0,0,28,0
CCOC(=O)c1c(C(F)(F)F)nn2c(=O)n(-c3ccccc3C(F)(F)F)nnc12,0,7,9,9
CCCOc1cc(-n2nnc3c(C(=O)OCC)c(SC)nn3c2=O)c(F)cc1Cl,0,0,12,2
CCOC(=O)c1c(C)nn2c(=O)n(-c3ccccc3C(F)(F)F)nnc12,0,5,6,86
C=CCOc1cc(-n2nnc3c(C(=O)OCC)c(C)nn3c2=O)c(F)cc1Cl,0,0,24,0
CCOC(=O)c1c(C(F)(F)F)nn2c(=O)n(-c3c(Cl)cc(C(F)(F)F)cc3Cl)nnc12,0,2,15,22
C=CCOc1cc(-n2nnc3c(C(=O)OCC)c(SC)nn3c2=O)c(F)cc1Cl,0,0,22,25
CCOC(=O)c1c(C(F)(F)F)nn2c(=O)n(-c3ccc(Cl)cc3C(F)(F)F)nnc12,0,0,21,0
CCOC(=O)c1c(C(F)(F)F)nn2c(=O)n(-c3cc(C(F)(F)F)ccc3Cl)nnc12,0,0,2,10
CCOC(=O)c1c(SC)nn2c(=O)n(-c3ccc(C(F)(F)F)cc3)nnc12,2,4,22,18
CCCOc1cc(-n2nnc3c(C(=O)OCC)c(C)nn3c2=O)c(F)cc1Cl,0,0,18,0
CCOC(=O)c1c(SC)nn2c(=O)n(-c3ccccc3C(F)(F)F)nnc12,0,0,0,23
CCOC(=O)c1c(C)nn2c(=O)n(-c3cc(C(F)(F)F)ccc3Cl)nnc12,0,61,0,65
CC#COc1cc(-n2nnc3c(C(=O)OCC)c(SC)nn3c2=O)c(F)cc1Cl,0,0,32,0
CCOC(=O)c1c(C)nn2c(=O)n(-c3ccc(Cl)cc3C(F)(F)F)nnc12,6,0,14,63
CCOC(=O)c1c(C(F)(F)F)nn2c(=O)n(-c3ccc(C(F)(F)F)cc3)nnc12,9,0,18,2
CCOC(=O)c1c(SC)nn2c(=O)n(-c3ccc(Cl)c(C(F)(F)F)c3)nnc12,0,22,26,24
CCOC(=O)c1c(C(F)(F)F)nn2c(=O)n(-c3ccc(Cl)c(C(F)(F)F)c3)nnc12,0,13,0,14
CCOC(=O)c1c(SC)nn2c(=O)n(-c3cc(OC(C)C)c(Cl)cc3F)nnc12,0,0,20,13
